Results on 3 compounds are retold here after paper PMC10812557, “Progressive Design of a Ranatuerin-2 Peptide from Amolops wuyiensis: Enhancement of Bioactivity and In Vivo Efficacy” (Antibiotics, 2023).

The structures appear in SMILES notation. Read-outs that look alike come from different tables or passages of the source. Peptide text beside a SMILES is read from it.

The test system of assay [1] is E. faecium (NTCC 12697). The experiment in a line: microbe, parasite or virus in culture. In kind it is cell-based. An excerpt: (§1) The MIC and MBC assays were used to assess the inhibitory activities of all 5 analogues of R2AW on the growth of planktonic microorganisms. The MIC is the lowest concentration that prevents the viable growth of bacteria. The MBC is the lowest concentration that results in bacterial death. Six microorganisms were used to detect the antimicrobial activity of peptides, including Gram-positive bacteria S. aureus (NCTC 10788), MRSA (NCTC 12493), Enterococcus faecalis (E. faecalis) (NCTC 12697), Gram-negative bacteria E. coli […], Klebsiella pneumoniae (K. pneumoniae) (ATCC 43816), and Pseudomonas aeruginosa (P. aeruginosa) (ATCC 9027). According to the assay described previously, the microorganisms were inoculated at 37 °C overnight and diluted to 5 × 10^5 CFU/mL after reaching the logarithmic growth period. The peptide stock solution at the concentration of 512 × 10^2 μM was prepared and diluted to 100 μM by a 2-fold dilution. One μL of each concentration of peptide solution was incubated with 99 μL of bacterial subculture in the 96-well plate for 18 h at 37 °C. The absorbance was determined at a wavelength of 550 nm using a Synergy HT plate reader (Bio Tek, Washington, DC, USA). […] As for those wells that were clearly visible, 20 μL of the solution was dropped onto the Mueller Hinton agar (MHA) dish and then incubated at 37 °C overnight. The lowest concentration with no colony growth was determined as the MBC.

Assay [2] relates to MRSA (NCTC 12493). Kind of assay: microbe, parasite or virus in culture. In kind it is cell-based. The following applies: MRSA (NCTC 12493).
Source text: as §1

The subject of assay [3] is S. aureus (NCTC 10788). Kind of assay: microbe, parasite or virus in culture. In kind it is cell-based.
Source text: as §1

Assay [4] has as its system E. coli (ATCC 8739). In kind it is cell-based.
Source text: as §1

Assay [5] concerns K. pneumoniae (ATCC 43816). The format is cell-based.
Source text: as §1

Assay [6] concerns P. aeruginosa (ATCC 9027). In kind it is cell-based.
Source text: as §1

For assay [7], the system named is S. aureus (NCTC 10788). In kind it is cell-based, Staphylococcus aureus. The method, then:
(§2) As a previous study described in detail, the ability of R2AW and its analogues to inhibit and eradicate the formation of biofilm was investigated. The MBIC is the lowest concentration which inhibits the formation of biofilm. The MBEC is the minimum concentration that eradicates biofilm. Six bacterial strains were used, as described above. Briefly, the bacteria were cultured and then diluted to 5 × 10^5 CFU/mL. In MBIC assays, 1 μL of each concentration of R2AW and its analogues (ranging from 512 × 10^2 μM to 100 μM) was mixed with 99 μL of diluted bacterial suspension in a 96-well plate for 16-20 h at 37 °C. As for MBEC assays, 100 μL of cultured bacteria were seeded in a 96-well plate and incubated on the shaking incubator at 37 °C overnight for biofilm formation. Subsequently, each well was rinsed twice with 100 μL sterile PBS to remove planktonic cells, and then replaced with 100 μL of each concentration (ranging from 512 μM to 1 μM) of peptides. After 24 h incubation, the biofilm was washed twice with 100 μL of PBS and fixed with methanol. Next, the same volume of 0.1% crystal violet solution (Sigma-Aldrich, Gillingham, UK) was added to each well to stain the biofilm. After that, 100 μL of 30% of acetic acid (Sigma-Aldrich, Gillingham, UK) was transferred to each well for dissolution. The solutions were transferred into a new 96-well plate and the absorbances of wells was monitored using a Synergy HT plate reader set to 595 nm.

Assay [8] relates to E. coli (ATCC 8739). In kind it is cell-based, Escherichia coli. Here is the method: as §2
The subject of assay [9] is K. pneumoniae (ATCC 43816). In kind it is cell-based, Klebsiella pneumoniae. Here is the method:
as §2

Assay [10] concerns E. faecium (NTCC 12697). In kind it is cell-based. Here is the method:
as §2

Assay [11] concerns P. aeruginosa (ATCC 9027). The format is cell-based, Pseudomonas aeruginosa. Here is the method:
as §2

Assay [12] relates to H838. In kind it is cell-based, human. The settings on record: 24 h. The method, then:
(§3) Five human cancer cell lines of non-small-cell lung cancer H838, human prostate carcinoma PC-3, human neuronal glioblastoma U251MG, human breast cancer cell MCF-7, and colorectal carcinoma HCT116 were used to detect the antiproliferative abilities of R2AW and its five analogues. According to the procedures in a previous article, cells (8000 cells/well) were seeded into the 96-well tissue culture plates and incubated at 37 °C with 5% CO2 overnight. The solutions of R2AW and its analogues at concentrations of 10^−4 M to 10^−9 M were prepared in the serum-free medium. Next, cells in each well were treated with 100 μL of each peptide solution for 24 h. Subsequently, 10 μL of 5 mg/mL MTT (3-(4, 5-Dimethylthiazol-2-yl-)-2, 5-Diphehyltetrazolium Bromide) was added to each well followed by 37 °C incubation for 2 h. After that, the liquid in each well was removed and 100 μL of DMSO was added to dissolve the purple formazan. The plate was placed on a shaking incubator for 10 min, and the absorbance was detected at 550 nm using a Synergy HT plate reader (Biotech, Minneapolis, MN, USA).

Assay [13] relates to HCT116. The format is cell-based, human. The settings on record: 24 h. The method, then:
as §3

Assay [14] relates to MCF-7. The format is cell-based, human. The following applies: 24 h. The method, then:
as §3

Assay [15] has as its system PC-3. In kind it is cell-based, human. The following applies: 24 h. The method, then: as §3
For assay [16], the system named is U251MG. The format is cell-based, human. The settings on record: 24 h. The method, then:
as §3

Assay [17] has as its system MRSA (NCTC 12493). The format is cell-based, methicillin-resistant Staphylococcus aureus. The settings on record: NCTC 12493. The method, then: as §2

For `CC[C@H](C)[C@H](NC(=O)CN)C(=O)NCC(=O)N[C@@H](C)C(=O)N[C@H](C(=O)N[C@@H](CC(C)C)C(=O)N[C@@H](CCCCN)C(=O)N[C@H](C(=O)N[C@@H](CC(C)C)C(=O)N[C@H](C(=O)N[C@H](C(=O)NCC(=O)N[C@@H](CC(C)C)C(=O)N1CCC[C@H]1C(=O)N[C@@H](C)C(=O)N[C@@H](CC(C)C)C(=O)N[C@H](C(=O)N[C@@H](CO)C(=O)N[C@@H](Cc1c[nH]c2ccccc12)C(=O)N[C@H](C(=O)N[C@@H](CCCCN)C(=O)N[C@@H](CCCNC(=N)N)C(=O)N[C@@H](CCCCN)C(=O)N[C@@H](CCCNC(=N)N)C(=O)N[C@@H](CCC(N)=O)C(=O)N[C@@H](CCC(N)=O)C(N)=O)[C@@H](C)CC)[C@@H](C)CC)[C@@H](C)O)[C@@H](C)O)C(C)C)C(C)C` [Melittin, reference compound], the MBC in [1] (E. faecium (NTCC 12697)) was 2 µM; in assay [2], 2 µM; in [3] (S. aureus (NCTC 10788)) it was 2 µM; in [4] (E. coli (ATCC 8739)), 4 µM; in assay [5] (K. pneumoniae (ATCC 43816)), 32 µM; in assay [6] (P. aeruginosa (ATCC 9027)) it was 32 µM. Moreover, the values for the MIC in assay [1] (E. faecium (NTCC 12697)) and in assay [5] (K. pneumoniae (ATCC 43816)) were 2 µM and 32 µM, respectively.

As to `CSCC[C@H](NC(=O)[C@H](Cc1ccccc1)NC(=O)CN)C(=O)N[C@@H](CC(=O)O)C(=O)N[C@H](C(=O)N[C@@H](C)C(=O)N[C@@H](CCCCN)C(=O)N[C@@H](CC(N)=O)C(=O)N[C@H](C(=O)N[C@@H](C)C(=O)N[C@@H](CCCCN)C(=O)N[C@@H](CC(N)=O)C(=O)N[C@H](C(=O)N[C@@H](C)C(=O)N[C@@H](C)C(=O)N[C@H](C(=O)N[C@@H](CC(C)C)C(=O)N[C@@H](CC(C)C)C(=O)N[C@@H](CC(=O)O)C(=O)N[C@@H](CCCCN)C(=O)N[C@@H](CC(C)C)C(=O)N[C@@H](CCCCN)C(N)=O)[C@@H](C)O)C(C)C)C(C)C)[C@@H](C)O` [R2AW(1-22)-NH2] (H-GFMDTAKNVAKNVAATLLDKLK-NH2), the MBC in assay [1] (NTCC 12697, 18 h) was 601 µg/mL; in [2], 601 µg/mL; in [3] (NCTC 10788, 18 h), 150 µg/mL; in assay [4] (ATCC 8739, 18 h) it was 301 µg/mL; in assay [5] (ATCC 43816, 18 h) it was 601 µg/mL; in [6] (ATCC 9027, 18 h), greater than 1202 µg/mL. The MIC came to 601 µg/mL in assay [1] (NTCC 12697, 18 h); 601 µg/mL in assay [2]; 150 µg/mL in assay [3] (NCTC 10788, 18 h); 300 µg/mL in assay [4] (ATCC 8739, 18 h); 601 µg/mL in assay [5] (ATCC 43816, 18 h); 1202 µg/mL in assay [6] (ATCC 9027, 18 h). Further, the MBEC in assay [7] is given as greater than 512 µM; in assay [8] it was 512 µM; in assay [9] it was 512/>512 µM; in assay [10] it was greater than 512 µM; in assay [11], greater than 512 µM. Moreover, the MBIC in [7] was 128 µM; in assay [8] it was 256 µM; in assay [9] it was 512/>512 µM; in assay [10] it was greater than 512 µM; in [11] it was greater than 512 µM. Also, the concentration for half-maximal inhibition (IC50) in assay [12] is 58.9 µM; in assay [13], 609 µM; in [14] it was 374 µM; in [15] it was 194 µM; in assay [16] it was 516 µM.

As for `CSCC[C@H](NC(=O)[C@H](Cc1ccccc1)NC(=O)CN)C(=O)N[C@@H](CC(=O)O)C(=O)N[C@H](C(=O)N[C@@H](C)C(=O)N[C@@H](CCCCN)C(=O)N[C@@H](CC(N)=O)C(=O)N[C@H](C(=O)N[C@@H](C)C(=O)N[C@@H](CCCCN)C(=O)N[C@@H](CC(N)=O)C(=O)N[C@H](C(=O)N[C@@H](C)C(=O)N[C@@H](C)C(=O)N[C@H](C(=O)N[C@@H](CC(C)C)C(=O)N[C@@H](CC(C)C)C(=O)N[C@@H](CC(=O)O)C(=O)N[C@@H](CCCCN)C(=O)N[C@@H](CC(C)C)C(=O)N[C@@H](CCCCN)C(=O)O)[C@@H](C)O)C(C)C)C(C)C)[C@@H](C)O` [R2AW(1-22)] (H-GFMDTAKNVAKNVAATLLDKLK-OH), the MBC in assay [1] (NTCC 12697, 18 h) was greater than 1202 µg/mL; in assay [2], greater than 1202 µg/mL; in assay [3] (NCTC 10788, 18 h), greater than 1202 µg/mL; in assay [4] (ATCC 8739, 18 h), greater than 1202 µg/mL; in assay [5] (ATCC 43816, 18 h), greater than 1202 µg/mL; in assay [6] (ATCC 9027, 18 h), greater than 1202 µg/mL. In addition, the MIC in [1] (NTCC 12697, 18 h) was greater than 1203 µg/mL; in [2], greater than 1203 µg/mL; in assay [3] (NCTC 10788, 18 h) it was greater than 1203 µg/mL; in assay [4] (ATCC 8739, 18 h), greater than 1203 µg/mL; in assay [5] (ATCC 43816, 18 h), greater than 1203 µg/mL; in [6] (ATCC 9027, 18 h), greater than 1203 µg/mL. Moreover, the MBEC in assay [7], in [8], in assay [17], in [9], in [10] and in [11] was greater than 512 µM in each case. In addition, the MBIC in [7], in assay [8], in assay [17], in assay [9], in assay [10] and in assay [11] was greater than 512 µM throughout. Moreover, the IC50 in [12] was 1420 µM; in assay [13] it was 1120 µM; in assay [14] it was 894 µM; in assay [15], 1480 µM; in [16], 1820 µM.
